Source: ChEMBL document CHEMBL1156464, “Unique antiviral mechanism discovered in anti-hepatitis B virus research with a natural product analogue” (Proc Natl Acad Sci U S A, 2007)
Active and inactive are the calls of the source. The rule behind the calls is not given here.

Legend:
Hepatitis B virus [1] = test: Antiviral activity against HBV in mouse ayw wild type HBV-Met cells assessed as inhibition of viral DNA replication; type: functional, organism-based
[2] = Cytotoxicity against HBV transfected human ayw wild type HepG2(2.2.15) cells by MTT assay; type: cell-based; details: HBV-transfected ayw wild type HepG2(2.2.15) cells
Hepatitis B virus [3] = test: Antiviral activity against HBV in human HepD2 cells assessed as inhibition of viral 2.4/2.1RNA replication; type: functional, organism-based
Hepatitis B virus [4] = test: Inhibition of HBV promoter in human HepG2 cells by luciferase reporter gene assay; type: functional, organism-based
Hepatitis B virus [5] = test: Antiviral activity against HBV in mouse HBV-Met cells assessed as inhibition of viral 2.4/2.1RNA replication; type: functional, organism-based
Hepatitis B virus [6] = test: Inhibition of HBV promoter in human HepG2(2.2.15) cells by luciferase reporter gene assay; type: functional, organism-based
[7] = Cytotoxicity against HBV transfected human adriamycin-resistant HepD2 cells with RTM20V and RTV180M mutation by MTT assay; type: cell-based
Hepatitis B virus [8] = test: Antiviral activity against HBV in human HepD2 cells assessed as inhibition of viral pre genomic RNA replication; type: functional, organism-based
Hepatitis B virus [9] = test: Antiviral activity against HBV in HBV-Met cells assessed as inhibition of viral pre genomic RNA replication; type: functional, organism-based
Hepatitis B virus [10] = test: Antiviral activity against HBV in adriamycin-resistant HepD2 cells with RTM20V and RTV180M mutation assessed as inhibition of viral DNA replication; type: functional, organism-based
Hepatitis B virus [11] = test: Antiviral activity against HBV in human HepW10 cells assessed as inhibition of viral pre genomic RNA replication; type: functional, organism-based
Hepatitis B virus [12] = test: Antiviral activity against HBV in human HepW10 cells assessed as inhibition of viral 2.4/2.1RNA replication; type: functional, organism-based
[13] = Cytotoxicity against HBV transfected human HepG2 cells by MTT assay; type: cell-based
[14] = Cytotoxicity against HBV transfected human adriamycin-resistant wild type HepW10 cells by MTT assay; type: cell-based
Hepatitis B virus [15] = test: Antiviral activity against HBV in adriamycin-resistant wild type HepW10 cells assessed as inhibition of viral DNA replication; type: functional, organism-based
Hepatitis B virus [16] = test: Antiviral activity against HBV in human HepG2(2.2.15) cells assessed as inhibition of viral 2.4/2.1RNA replication; type: functional, organism-based
Hepatitis B virus [17] = test: Effect on virus RNA stability on doxycyclin-induced HBV pre genomic RNA production in Met-On-TRE HBV cells treated with 3 uM drug after doxycycline removal; type: functional, organism-based
Hepatitis B virus [18] = test: Antiviral activity against HBV in ayw wild type HepG2(2.2.15) cells assessed as inhibition of viral DNA replication; type: functional, organism-based
Hepatitis B virus [19] = test: Antiviral activity against HBV in human HepG2(2.2.15) cells assessed as inhibition of viral pre-genomic RNA replication; type: functional, organism-based
Hepatitis C virus = test: Antiviral activity against hepatitis C virus; type: functional, organism-based, Hepacivirus hominis
HepG2 2.2.15 [20] = test: Decrease in binding of HBV promoter preC/C-EnhII to human FTF in HepG2(2.2.15) cells; type: cell-based
[21] = Down regulation of HNH4-alpha in human HepG2(2.2.15) cells expressing HBV at 0.3 uM by Western blotting; type: functional, cell-based
[22] = Down regulation of HNH3-beta in human HepG2(2.2.15) cells expressing HBV at 0.3 uM by Western blotting; type: functional, cell-based
HepG2 [23] = test: Decrease in binding of HBV promoter preC/C-EnhII to HNF3 in human HepG2 cells; type: cell-based
Hepatitis B virus [24] = test: Effect on HBV viral core protein degradation on cyclohexamide terminated cellular protein synthesis in human HepG2(2.2.15) cells at 0.3 uM; type: functional, organism-based
Hepatitis B virus [25] = test: Antiviral activity against HBV assessed as inhibition of viral replication; type: functional, organism-based
Cytomegalovirus = test: Inhibition of CMV promoter in human HepG2(2.2.15) cells by luciferase reporter gene assay after 16 to 24 hrs; type: functional, organism-based; details: TDE = time-dependent effect
[26] = test system: Human immunodeficiency virus; test: Antiviral activity against HIV; type: functional, organism-based; details: Human immunodeficiency virus 1
HepG2 [27] = test: Down regulation of HNH4-alpha in human HepG2 cells expressing HBV at 0.3 uM by Western blotting; type: functional, cell-based
[28] = Down regulation of HNH3-alpha mRNA in human HepG2(2.2.15) cells expressing HBV at 0.3 uM by Northern blotting; type: functional, cell-based
HepG2 2.2.15 [29] = test: Decrease in binding of HBV promoter preC/C-EnhII to human HNF3 in HepG2(2.2.15) cells; type: cell-based
HepG2 2.2.15 [30] = test: Decrease in binding of HBV promoter preC/C-EnhII to human HNF4-2 in HepG2(2.2.15) cells; type: cell-based
HepG2 2.2.15 [31] = test: Decrease in binding of HBV promoter preC/C-EnhII to human HNF4-1 in HepG2(2.2.15) cells; type: cell-based
HepG2 [32] = test: Decrease in binding of HBV promoter preC/C-EnhII to HNF4-2 in human HepG2 cells; type: cell-based
Hepatitis B virus [33] = test: Effect on virus RNA stability on doxycyclin-induced HBV pre genomic RNA production in Met-On-TRE HBV cells treated with 0.3 uM drug after doxycycline removal; type: functional, organism-based
HepG2 [34] = test: Decrease in binding of HBV promoter preC/C-EnhII to FTF2 in human HepG2 cells; type: cell-based
Human gammaherpesvirus 4 = test: Antiviral activity against Epstein-Barr virus; type: functional, organism-based
Hepatitis B virus [35] = test: Decrease in HBV protein level in human HepG2 cells at 2 uM after 18 to 24 hrs by time course study; type: functional, organism-based
Human alphaherpesvirus 1 = test: Antiviral activity against HSV1; type: functional, organism-based
HepG2 [36] = test: Down regulation of HNH3-beta in human HepG2 cells expressing HBV at 0.3 uM by Western blotting; type: functional, cell-based
Hepatitis B virus [37] = test: Decrease in HBV DNA level in human HepG2 cells at 2 uM after 48 hrs by time course study; type: functional, organism-based
human papillomavirus 11 = test: Antiviral activity against human papilloma virus 11; type: functional, organism-based
Hepatitis B virus [38] = test: Decrease in HBV RNA in human HepG2 cells at 2 uM after 18 to 24 hrs by time course study; type: functional, organism-based
HepG2 [39] = test: Decrease in binding of HBV promoter preC/C-EnhII to HNF4-1 in human HepG2 cells; type: cell-based

For `Nc1ccn([C@@H]2CS[C@H](CO)O2)c(=O)n1` [LAMIVUDINE], the IC50 (Hepatitis B virus [1]) was 0.2 µM, the CC50 [2] was > 100 µM and the Activity (Hepatitis B virus [3]) was “inactive”. For the same molecule, the IC50 (Hepatitis B virus [4]) was > 1 µM, the Activity (Hepatitis B virus [5]) was “inactive” and the IC50 (Hepatitis B virus [6]) was 0.08 µM. For the same molecule, the CC50 [7] was > 100 µM, the Activity (Hepatitis B virus [8]) was “inactive” and the Activity (Hepatitis B virus [9]) was “inactive”. The IC50 (Hepatitis B virus [10]) was > 3 µM, the Activity (Hepatitis B virus [11]) was “inactive” and the Activity (Hepatitis B virus [12]) was “inactive”. For the same molecule, the CC50 [13] was 100 µM, the CC50 [14] was > 100 µM and the IC50 (Hepatitis B virus [15]) was 0.1 µM. The Activity (Hepatitis B virus [16]) was “inactive”, the Activity (Hepatitis B virus [17]) was “inactive” and the IC50 (Hepatitis B virus [18]) was 0.05 µM. The Activity (Hepatitis B virus [19]) was “inactive”.

In the case of `O=c1[nH][nH]c(=O)c2c(-c3ccc4c(c3)OCO4)c3c4c(ccc3cc12)OCO4`, the IC50 (Hepatitis C virus) is reported as 10 µM, the Activity (HepG2 2.2.15 [20]) is reported as “Active” and the IC50 (Hepatitis B virus [1]) is reported as 0.3 µM. For the same molecule, the CC50 [2] was 9 µM, the Activity [21] was “Active” and the IC50 (Hepatitis B virus [3]) was 1.5 µM. For the same molecule, the IC50 (Hepatitis B virus [4]) was > 1 µM, the IC50 (Hepatitis B virus [5]) was 1 µM and the IC50 (Hepatitis B virus [6]) was 0.08 µM. For the same molecule, the Activity [22] was “Active”, the Activity (HepG2 [23]) was “inactive” and the CC50 [7] was 12 µM. The IC50 (Hepatitis B virus [8]) was 0.09 µM, the Activity (Hepatitis B virus [24]) was “inactive” and the IC50 (Hepatitis B virus [25]) was 0.1 µM. For the same molecule, the IC50 (Hepatitis B virus [9]) was 0.5 µM, the Activity (Cytomegalovirus) was “tde” and the IC50 (Hepatitis B virus [10]) was 0.03 µM. The IC50 (Hepatitis B virus [11]) was 0.4 µM, the IC50 [26] was 15 µM and the Activity (HepG2 [27]) was “inactive”. The IC50 (Hepatitis B virus [12]) was > 3 µM, the CC50 [13] was 29 µM and the Activity [28] was “inactive”. For the same molecule, the Activity (HepG2 2.2.15 [29]) was “Active”, the Activity (HepG2 2.2.15 [30]) was “Active” and the Activity (HepG2 2.2.15 [31]) was “Active”. For the same molecule, the Activity (HepG2 [32]) was “inactive”, the CC50 [14] was 13 µM and the IC50 (Hepatitis B virus [15]) was 0.2 µM. The Activity (Hepatitis B virus [33]) was “inactive”, the Activity (HepG2 [34]) was “Active” and the IC50 (Human gammaherpesvirus 4) was > 25 µM. The Activity (Hepatitis B virus [35]) was “Active”, the IC50 (Human alphaherpesvirus 1) was 1.2 µM and the IC50 (Hepatitis B virus [16]) was 0.9 µM. The IC50 (Hepatitis B virus [18]) was 0.08 µM, the IC50 (Hepatitis B virus [19]) was 0.3 µM and the Activity (HepG2 [36]) was “Active”. The Activity (Hepatitis B virus [37]) was “Active”, the IC50 (human papillomavirus 11) was 5.8 µM and the Activity (Hepatitis B virus [38]) was “Active”. For the same molecule, the Activity (HepG2 [39]) was “inactive”.

In the case of `O=C1NCc2c1cc1ccc3c(c1c2-c1ccc2c(c1)OCO2)OCO3`, the IC50 (Hepatitis C virus) is reported as 1 µM, the IC50 (Hepatitis B virus [4]) is reported as > 1 µM and the IC50 (Hepatitis B virus [6]) is reported as 0.08 µM. For the same molecule, the IC50 (Hepatitis B virus [25]) was 0.08 µM, the IC50 [26] was 4 µM and the IC50 (Human gammaherpesvirus 4) was 11 µM. It also gave an IC50 (Human alphaherpesvirus 1) of 0.29 µM and an IC50 (human papillomavirus 11) of 0.2 µM.
